Results published in US5578622A, “Isothiazole derivatives and their uses” (Asamura Patent Office, priority 1994, dated 1996).

Tests used:
Trichoderma viride = test: Test for wood rotting-preventing effect (mycelium growth inhibition on malt extract agar); type: cell-based; settings: 28° C.±2° C., 2 to 10 days, read-out: Rotting preventing effect (mycelium growth-inhibitory rate), TRV
In short: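 Mycelial agar disks (4 mm) placed on malt extract agar containing 50 ppm test compound and cultured at 28 °C ± 2 °C. Colony diameter measured 2–10 days after inoculation; growth-inhibitory rate (%) reported as symbol grades.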

Aspergillus niger = test: as above; type: cell-based; settings: 28° C.±2° C., 2 to 10 days, read-out: Rotting preventing effect (mycelium growth-inhibitory rate), ASN
In short: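 Mycelial agar disks (4 mm) placed on malt extract agar containing 50 ppm test compound, incubated at 28° C.±2° C. Colony diameter measured 2–10 days after inoculation; growth-inhibitory rate (%) reported as symbol-coded score.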

Rhizopus nigricans = test: as above; type: cell-based; settings: Rhizopus stolonifer, 28° C.±2° C., 2 to 10 days, read-out: Rotting preventing effect (mycelium growth-inhibitory rate), RHN
In short: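 Mycelial agar disks (4 mm) placed on malt extract agar containing 50 ppm test compound and grown at 28 °C ± 2 °C. Colony diameter measured 2-10 days after inoculation; mycelium growth-inhibitory rate (%) reported as a symbol score.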

[1] = system: Pseudoperonospora cubensis; test: Test for controlling effect on downy mildew of cucumber; type: in vivo; settings: 168 h, 200 ppm spray, one day before inoculation, cucumber 2-leaf stage, read-out: Controlling effect (control of disease), Downy mildew of cucumber
In short: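 200 ppm compound sprayed on potted 2-leaf cucumber; P. cubensis zoospores spray-inoculated one day later. Plants kept 1 day in humid room at 25° C, then 6 days in greenhouse. Control computed from per-leaf infection relative to untreated plot.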

Rhizoctonia solani = test: Test for controlling effect on sheath blight of rice; type: in vivo; settings: 120 h, 200 ppm spray, 24 hours after inoculation, rice 4-leaf stage, five days after inoculation, read-out: Controlling effect (control of disease), Sheath blight of rice
In short: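 Rice seedlings at the 4-leaf stage were inoculated with mycelium, then sprayed 24 h later with compound at 200 ppm. After air-drying, plants were held 24 h at 28 °C and 98% humidity, then moved to a greenhouse. Infected area was scored 5 days post-inoculation; control was calculated relative to untreated plants.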

[2] = system: Candida albicans IFO 1270; test: In vitro antimycotic activity on Candida albicans; type: cell-based; settings: IFO1270, 10 (ppm), SGB, 37° C., 48 hours, turbidity at 650 nm, read-out: Antimycotic activity (growth inhibitory rate), C.albicans
Protocol: 3-1 In vitro antimycotic activity on Candida albicans
Candida albicans IFO 1270 pre-cultured on a Sabouraud's glucose agar (SGA) plate medium at 37° C. […] was suspended in a sterilized physiological salt solution. The number of fungi in the resulting suspension was counted with a globulimeter, and adjusted so as to be 1×10^7 cell/ml with a sterilized physiological salt solution. This solution was used as an inoculum solution. Thereafter, 0.1 ml of this solution and 0.1 ml of a dimethyl sulfoxide (DMSO) solution of the test compound were added to 9.8 ml of Sabouraud's glucose broth (SGB), and shake-cultured at 37° C. for 48 hours. After culture, the medium turbidity was measured at 650 nm, and the growth-inhibitory rate of the fungus was calculated according to the following equation.
Growth inhibitory rate (%)=(1-W/Y)×100
Y: Medium turbidity of DMSO control group
W: Medium turbidity of test compound group
From this inhibitory rate, the antimycotic activity was shown by the symbols A to D. The test results of the test compounds are shown in Table 4.

[3] = system: Trichophyton mentagrophytes IFO 5810; test: In vitro antimicrobial activity on Trichophyton mentagrophytes; type: cell-based; parameters: key: A: Fungus is not observed at all with the naked eye.; B: Presence of fungus is slightly observed on shaking the test tube.; C: Fungus of about less than one-fourth that of the DMSO control group is observed with the naked eye.; Fungus of about less than half that of the DMSO control group is observed with the naked eye; settings: 10 (ppm); SGB, 27° C., 7 days
Protocol: 3-3 In vitro antimicrobial activity on Trichophyton mentagrophytes To Trichophyton mentagrophytes IFO 5810 precultured at 27° C. for 2 to 3 weeks on a Sabouraud's glucose agar (SGA) slant medium was added a sterilized physiological salt solution containing 0.1% (W/V) Tween 80. After conidia were made free from the solution, the solution was filtered through a sterilized two-sheet gauze to remove the mycelium mass. The number of the conidia in the resulting suspension was counted with a globulimeter and adjusted so as to be 1×10^6 conidia/ml with a sterilized physiological salt solution containing 0.1%(W/V) Tween 80. This solution was used as an inoculum solution. Thereafter, 0.1 ml of this solution and 0.1 ml of the dimethyl sulfoxide (DMSO) solution of the test compound were added to 9.8 ml of Sabouraud's glucose broth (SGB), and shake-cultured at 27° C. for 7 days.

Row | SMILES | inhibition at 50 ppm (Trichoderma viride) | inhibition at 50 ppm (Aspergillus niger) | inhibition at 50 ppm (Rhizopus nigricans) | pest or weed control at 200 ppm [1] | pest or weed control at 200 ppm (Rhizoctonia solani) | inhibition of growth at 10 µg/mL [2] | Antimycotic activity (degree of growth, naked eye), T.mentagrophytes [3]
1 | CN(C)c1snc(OCC#CI)c1C#N [Compound 30, 3-(3-iodo-2-propynyloxy)-4-cyano-5-dimethylaminoisothiazole] | 95 to 100% | 95 to 100% | 95 to 100% | 95 to 100% | 95 to 100% | 100% | A
2 | N#Cc1c(OC(F)F)nsc1OCCC#CI [Compound 82] | 95 to 100% | 95 to 100% | 95 to 100% | 95 to 100% | 95 to 100% | 100% | A
3 | COc1nsc(OCC#CI)c1C#N [Compound 48] | 95 to 100% | 95 to 100% | 95 to 100% | 95 to 100% | 95 to 100% | 100% | A
4 | CSc1snc(OCC#CI)c1C#N [Compound 1, 3-(3-iodo-2-propynyloxy)-4-cyano-5-methylthioisothiazole] | 95 to 100% | 80 to 94% | 95 to 100% | 95 to 100% | 60 to 79% | 100% | A
5 | CSc1snc(OCCC#CI)c1C#N [Compound 70] | 95 to 100% | 95 to 100% | 80 to 94% | 80 to 94% | 95 to 100% | 100% | A
6 | N#Cc1c(OC(F)F)nsc1SCOCC#CI [Compound 60] | 95 to 100% | 95 to 100% | 95 to 100% | 95 to 100% | 95 to 100% | 100% | A
7 | CCOc1nsc(SCOCC#CI)c1C#N [Compound 54] | 95 to 100% | 95 to 100% | 95 to 100% | 95 to 100% | 95 to 100% | 100% | A
8 | N#Cc1c(OCC#CI)nsc1SC(F)F [Compound 12, 3-(3-iodo-2-propynyloxy)-4-cyano-5-difluoromethylthioisothiazole] | 95 to 100% | 95 to 100% | 95 to 100% | 95 to 100% | 80 to 94% | 100% | A
9 | CCOc1snc(OCOCC#CI)c1C#N [Compound 96] | 95 to 100% | 95 to 100% | 95 to 100% | 95 to 100% | 95 to 100% | 100% | A
10 | N#Cc1c(OCOCC#CI)nsc1SC(F)F [Compound 90] | 95 to 100% | 95 to 100% | 95 to 100% | 95 to 100% | 95 to 100% | 100% | A
11 | CC(C)Oc1snc(OCC#CI)c1C#N [Compound 23] | 95 to 100% | 95 to 100% | 95 to 100% | 95 to 100% | 80 to 94% | 100% | A
12 | CS(=O)(=O)c1snc(OCC#CI)c1C#N [Compound 41, 3-(3-iodo-2-propynyloxy)-4-cyano-5-methylsulfonylisothiazole] | 95 to 100% | 95 to 100% | 95 to 100% | 95 to 100% | 80 to 94% | 100% | A
13 | CSc1nsc(SCOCC#CI)c1C#N [Compound 136] | 95 to 100% | 95 to 100% | 95 to 100% | 95 to 100% | 80 to 94% | 100% | A
14 | N#Cc1c(OCC#CI)nsc1S(=O)(=O)C(F)F [Compound 43] | 95 to 100% | 95 to 100% | 95 to 100% | 95 to 100% | 95 to 100% | 100% | A
15 | COc1snc(OCC#CI)c1C#N [Compound 21, 3-(3-iodo-2-propynyloxy)-4-cyano-5-methoxyisothiazole] | 95 to 100% | 95 to 100% | 95 to 100% | 95 to 100% | 95 to 100% | 100% | A
16 | CSc1snc(OC(C)OCC#CI)c1C#N (stereo not shown) [Compound 119] | 95 to 100% | 95 to 100% | 80 to 94% | 95 to 100% | 80 to 94% | 100% | A
